In the kinase profiling compilation of Christmann-Franck et al. (2016):

What was measured:
Assay in all cases: KINOMEscan competition binding
Settings in all cases: compound 10.0 µM
AAK1 (human) = AAK1 (human) (UniProt Q2M2I8)
AKT2 (human) = AKT2 (human) (UniProt P31751)
AURKA (human) = AURKA (human) (UniProt O14965)
AURKB (human) = AURKB (human) (UniProt Q96GD4)
BTK (human) = BTK (human) (UniProt Q06187)
CAMK2A (human) = CAMK2A (human) (UniProt Q9UQM7)
CDK11B (human) = CDK11B (human) (UniProt P21127)
CDK16 (human) = CDK16 (human) (UniProt Q00536)
CDK3 (human) = CDK3 (human) (UniProt Q00526)
CDK7 (human) = CDK7 (human) (UniProt P50613)
CDK9 (human) = CDK9 (human) (UniProt P50750)
CDK9 (human), sequence (P50750 whole entry, looked up): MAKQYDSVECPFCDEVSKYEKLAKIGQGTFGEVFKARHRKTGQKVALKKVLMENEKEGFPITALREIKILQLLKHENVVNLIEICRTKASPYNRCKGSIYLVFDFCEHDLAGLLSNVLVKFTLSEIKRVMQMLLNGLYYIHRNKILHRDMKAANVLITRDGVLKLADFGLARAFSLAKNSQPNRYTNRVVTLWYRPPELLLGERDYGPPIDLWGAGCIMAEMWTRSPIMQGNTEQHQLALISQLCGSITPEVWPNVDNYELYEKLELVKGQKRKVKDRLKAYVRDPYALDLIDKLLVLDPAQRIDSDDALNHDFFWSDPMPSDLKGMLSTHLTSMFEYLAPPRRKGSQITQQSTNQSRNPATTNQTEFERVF

CSF1R (human) = CSF1R (human) (UniProt P07333)
DCLK1 (human) = DCLK1 (human) (UniProt O15075)
FGFR2 (human) = FGFR2 (human) (UniProt P21802)
FLT3 (human) = FLT3 (human) (UniProt P36888)
GRK1 (human) = GRK1 (human) (UniProt Q15835)
GSK3B (human) = GSK3B (human) (UniProt P49841)
HCK (human) = HCK (human) (UniProt P08631)
HIPK1 (human) = HIPK1 (human) (UniProt Q86Z02)
KIT (human) = KIT (human) (UniProt P10721)
[1] = system: KIT (human), P10721 [V559D/T670I]
LRRK2 (human) = LRRK2 (human) (UniProt Q5S007)
MAP3K12 (human) = MAP3K12 (human) (UniProt Q12852)
MAP3K12 (human), sequence (Q12852 whole entry, looked up): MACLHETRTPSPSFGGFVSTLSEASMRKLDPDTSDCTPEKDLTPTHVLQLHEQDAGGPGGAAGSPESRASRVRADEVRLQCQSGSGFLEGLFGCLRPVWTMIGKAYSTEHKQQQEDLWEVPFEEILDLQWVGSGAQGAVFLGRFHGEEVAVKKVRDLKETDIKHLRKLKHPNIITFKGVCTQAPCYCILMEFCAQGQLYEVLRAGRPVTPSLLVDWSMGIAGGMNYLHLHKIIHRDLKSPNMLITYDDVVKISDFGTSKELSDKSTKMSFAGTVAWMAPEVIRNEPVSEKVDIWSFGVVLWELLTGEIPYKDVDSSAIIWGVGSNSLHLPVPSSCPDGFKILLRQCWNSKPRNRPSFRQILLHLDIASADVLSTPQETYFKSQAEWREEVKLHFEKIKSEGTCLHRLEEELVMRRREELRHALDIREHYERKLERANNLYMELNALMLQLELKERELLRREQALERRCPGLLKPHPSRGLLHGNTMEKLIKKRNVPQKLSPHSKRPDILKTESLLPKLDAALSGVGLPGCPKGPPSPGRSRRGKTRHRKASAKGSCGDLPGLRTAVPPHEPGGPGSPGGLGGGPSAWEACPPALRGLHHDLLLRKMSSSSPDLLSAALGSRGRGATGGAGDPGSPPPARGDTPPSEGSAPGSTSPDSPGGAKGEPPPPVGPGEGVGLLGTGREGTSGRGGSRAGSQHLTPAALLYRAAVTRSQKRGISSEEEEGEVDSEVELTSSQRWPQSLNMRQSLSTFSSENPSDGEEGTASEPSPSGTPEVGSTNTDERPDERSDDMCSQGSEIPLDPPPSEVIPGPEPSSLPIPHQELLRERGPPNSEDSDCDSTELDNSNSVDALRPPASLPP

MAP3K5 (human) = MAP3K5 (human) (UniProt Q99683)
MAP3K5 (human), sequence (Q99683 whole entry, looked up): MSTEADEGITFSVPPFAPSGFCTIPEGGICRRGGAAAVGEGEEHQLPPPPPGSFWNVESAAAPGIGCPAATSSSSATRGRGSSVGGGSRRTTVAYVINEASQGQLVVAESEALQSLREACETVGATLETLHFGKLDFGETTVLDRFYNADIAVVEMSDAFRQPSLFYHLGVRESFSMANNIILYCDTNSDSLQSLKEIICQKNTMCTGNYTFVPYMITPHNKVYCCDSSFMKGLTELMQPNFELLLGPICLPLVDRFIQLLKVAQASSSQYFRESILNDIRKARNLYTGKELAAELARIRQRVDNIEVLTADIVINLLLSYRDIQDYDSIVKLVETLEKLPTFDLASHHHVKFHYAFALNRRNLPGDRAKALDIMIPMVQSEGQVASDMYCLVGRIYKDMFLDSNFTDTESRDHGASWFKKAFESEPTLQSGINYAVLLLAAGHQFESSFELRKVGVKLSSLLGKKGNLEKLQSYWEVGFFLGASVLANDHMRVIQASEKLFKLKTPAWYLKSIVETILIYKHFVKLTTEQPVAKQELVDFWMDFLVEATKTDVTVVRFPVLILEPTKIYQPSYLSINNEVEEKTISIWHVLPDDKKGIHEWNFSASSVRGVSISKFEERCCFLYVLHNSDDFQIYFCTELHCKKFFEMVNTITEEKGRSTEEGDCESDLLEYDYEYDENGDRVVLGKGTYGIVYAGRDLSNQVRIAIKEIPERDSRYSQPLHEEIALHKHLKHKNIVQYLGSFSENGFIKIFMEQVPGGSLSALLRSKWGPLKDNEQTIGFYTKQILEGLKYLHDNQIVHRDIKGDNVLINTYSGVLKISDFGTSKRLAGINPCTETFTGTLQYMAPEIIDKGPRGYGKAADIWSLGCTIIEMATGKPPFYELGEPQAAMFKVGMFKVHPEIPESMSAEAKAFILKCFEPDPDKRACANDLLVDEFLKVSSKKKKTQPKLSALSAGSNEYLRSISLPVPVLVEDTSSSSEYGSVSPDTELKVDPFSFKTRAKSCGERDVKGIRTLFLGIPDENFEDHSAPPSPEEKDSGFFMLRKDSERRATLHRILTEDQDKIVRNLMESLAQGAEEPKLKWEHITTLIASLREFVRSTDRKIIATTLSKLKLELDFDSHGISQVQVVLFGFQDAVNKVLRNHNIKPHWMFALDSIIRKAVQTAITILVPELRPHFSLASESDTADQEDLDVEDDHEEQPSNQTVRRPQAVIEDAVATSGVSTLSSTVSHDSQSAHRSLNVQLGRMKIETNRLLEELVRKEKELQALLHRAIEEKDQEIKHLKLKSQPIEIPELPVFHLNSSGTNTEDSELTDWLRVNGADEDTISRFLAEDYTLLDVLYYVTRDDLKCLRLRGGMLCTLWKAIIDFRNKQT

MAP3K9 (human) = MAP3K9 (human) (UniProt P80192)
MAP3K9 (human), sequence (P80192 whole entry, looked up): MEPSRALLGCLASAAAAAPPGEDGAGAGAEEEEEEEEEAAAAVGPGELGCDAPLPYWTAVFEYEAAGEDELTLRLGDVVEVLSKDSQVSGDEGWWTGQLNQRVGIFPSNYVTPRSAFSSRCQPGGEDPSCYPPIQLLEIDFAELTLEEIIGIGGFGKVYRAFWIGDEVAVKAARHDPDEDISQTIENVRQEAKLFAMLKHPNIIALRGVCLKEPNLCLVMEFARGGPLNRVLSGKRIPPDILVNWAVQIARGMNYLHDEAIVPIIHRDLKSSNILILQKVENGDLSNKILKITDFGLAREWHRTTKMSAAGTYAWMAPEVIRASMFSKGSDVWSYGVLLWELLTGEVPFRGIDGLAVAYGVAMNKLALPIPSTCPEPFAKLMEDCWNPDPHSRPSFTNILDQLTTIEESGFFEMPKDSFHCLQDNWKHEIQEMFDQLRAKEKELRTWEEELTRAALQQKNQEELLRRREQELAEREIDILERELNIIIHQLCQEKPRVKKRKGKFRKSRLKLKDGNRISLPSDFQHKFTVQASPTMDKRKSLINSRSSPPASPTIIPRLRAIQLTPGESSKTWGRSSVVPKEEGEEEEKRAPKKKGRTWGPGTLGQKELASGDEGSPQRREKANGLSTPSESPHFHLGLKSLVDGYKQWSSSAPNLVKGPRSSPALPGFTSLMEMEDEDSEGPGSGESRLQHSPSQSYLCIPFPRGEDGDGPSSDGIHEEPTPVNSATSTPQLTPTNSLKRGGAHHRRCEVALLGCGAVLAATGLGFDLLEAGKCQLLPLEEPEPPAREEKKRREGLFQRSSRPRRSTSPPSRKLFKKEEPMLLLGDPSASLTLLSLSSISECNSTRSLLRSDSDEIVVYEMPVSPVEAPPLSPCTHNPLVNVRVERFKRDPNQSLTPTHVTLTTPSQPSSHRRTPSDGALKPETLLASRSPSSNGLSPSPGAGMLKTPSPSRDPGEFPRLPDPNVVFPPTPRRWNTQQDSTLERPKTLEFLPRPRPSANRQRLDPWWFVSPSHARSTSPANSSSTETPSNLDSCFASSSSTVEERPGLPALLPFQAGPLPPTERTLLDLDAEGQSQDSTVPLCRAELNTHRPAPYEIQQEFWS

MAPK10 (human) = MAPK10 (human) (UniProt P53779)
MAPK10 (human), sequence (P53779 whole entry, looked up): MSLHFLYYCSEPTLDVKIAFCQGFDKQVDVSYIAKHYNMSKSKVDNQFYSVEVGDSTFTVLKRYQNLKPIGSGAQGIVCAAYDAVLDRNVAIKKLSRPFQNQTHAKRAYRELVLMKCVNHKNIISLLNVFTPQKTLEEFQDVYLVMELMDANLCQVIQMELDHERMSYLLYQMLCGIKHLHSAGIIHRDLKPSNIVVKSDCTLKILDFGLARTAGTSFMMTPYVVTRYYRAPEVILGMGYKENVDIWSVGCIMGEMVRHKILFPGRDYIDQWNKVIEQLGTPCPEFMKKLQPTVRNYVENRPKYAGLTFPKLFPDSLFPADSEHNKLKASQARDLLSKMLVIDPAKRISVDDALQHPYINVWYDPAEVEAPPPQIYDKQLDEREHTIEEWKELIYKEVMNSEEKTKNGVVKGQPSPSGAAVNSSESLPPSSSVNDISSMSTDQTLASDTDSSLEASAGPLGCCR

MAPK14 (human) = MAPK14 (human) (UniProt Q16539)
MAPK14 (human), sequence (Q16539 whole entry, looked up): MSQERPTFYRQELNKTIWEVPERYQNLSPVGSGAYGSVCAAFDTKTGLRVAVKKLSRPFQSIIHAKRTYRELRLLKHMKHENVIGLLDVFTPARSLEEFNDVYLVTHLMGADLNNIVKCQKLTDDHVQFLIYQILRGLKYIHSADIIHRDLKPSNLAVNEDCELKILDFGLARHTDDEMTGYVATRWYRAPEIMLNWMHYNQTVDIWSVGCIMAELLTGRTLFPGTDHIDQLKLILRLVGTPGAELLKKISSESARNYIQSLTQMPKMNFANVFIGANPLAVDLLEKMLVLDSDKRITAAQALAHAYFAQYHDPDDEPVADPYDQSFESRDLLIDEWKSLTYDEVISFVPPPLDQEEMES

MAPK3 (human) = MAPK3 (human) (UniProt P27361)
MAPKAPK2 (human) = MAPKAPK2 (human) (UniProt P49137)
MAPKAPK2 (human), sequence (P49137 whole entry, looked up): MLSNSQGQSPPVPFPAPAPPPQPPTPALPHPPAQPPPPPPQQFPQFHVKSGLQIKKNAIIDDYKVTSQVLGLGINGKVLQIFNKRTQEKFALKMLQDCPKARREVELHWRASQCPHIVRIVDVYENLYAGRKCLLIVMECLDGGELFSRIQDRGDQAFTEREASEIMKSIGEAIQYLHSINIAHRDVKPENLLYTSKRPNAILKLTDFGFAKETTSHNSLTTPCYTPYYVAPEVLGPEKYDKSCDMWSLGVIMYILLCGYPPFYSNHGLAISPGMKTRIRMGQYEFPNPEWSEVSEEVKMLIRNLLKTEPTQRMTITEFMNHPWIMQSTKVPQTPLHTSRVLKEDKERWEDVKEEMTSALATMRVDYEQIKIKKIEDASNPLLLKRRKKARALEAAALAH

MET (human) = MET (human) (UniProt P08581)
NTRK1 (human) = NTRK1 (human) (UniProt P04629)
PIM1 (human) = PIM1 (human) (UniProt P11309)
PIM3 (human) = PIM3 (human) (UniProt Q86V86)
PKN1 (human) = PKN1 (human) (UniProt Q16512)
PLK3 (human) = PLK3 (human) (UniProt Q9H4B4)
RPS6KB1 (human) = RPS6KB1 (human) (UniProt P23443)
SGK1 (human) = SGK1 (human) (UniProt O00141)
STK32C (human) = STK32C (human) (UniProt Q86UX6)
TEK (human) = TEK (human) (UniProt Q02763)
[2] = molecular target: TYK2 JH1 catalytic (human) (UniProt P29597)
ULK2 (human) = ULK2 (human) (UniProt Q8IYT8)

kinase still bound, per cent of control (AAK1 (human)): 85% | kinase still bound, per cent of control (AKT2 (human)): 96% | kinase still bound, per cent of control (AURKA (human)): 23% | kinase still bound, per cent of control (AURKB (human)): 4.7% | kinase still bound, per cent of control (BTK (human)): 96% | kinase still bound, per cent of control (CAMK2A (human)): 90% | kinase still bound, per cent of control (CDK11B (human)): 69% | kinase still bound, per cent of control (CDK16 (human)): 98% | kinase still bound, per cent of control (CDK3 (human)): 44% | kinase still bound, per cent of control (CDK7 (human)): 11% | kinase still bound, per cent of control (CDK9 (human)): 56% | kinase still bound, per cent of control (CSF1R (human)): 0.3% | kinase still bound, per cent of control (DCLK1 (human)): 82% | kinase still bound, per cent of control (FGFR2 (human)): 51% | kinase still bound, per cent of control (FLT3 (human)): 0% | kinase still bound, per cent of control (GRK1 (human)): 89% | kinase still bound, per cent of control (GSK3B (human)): 99% | kinase still bound, per cent of control (HCK (human)): 32% | kinase still bound, per cent of control (HIPK1 (human)): 52% | kinase still bound, per cent of control (KIT (human)): 0.05% | kinase still bound, per cent of control [1]: 0.15% | kinase still bound, per cent of control (LRRK2 (human)): 83% | kinase still bound, per cent of control (MAP3K12 (human)): 100% | kinase still bound, per cent of control (MAP3K5 (human)): 90% | kinase still bound, per cent of control (MAP3K9 (human)): 100% | kinase still bound, per cent of control (MAPK10 (human)): 74% | kinase still bound, per cent of control (MAPK14 (human)): 0% | kinase still bound, per cent of control (MAPK3 (human)): 100% | kinase still bound, per cent of control (MAPKAPK2 (human)): 100% | kinase still bound, per cent of control (MET (human)): 58% | kinase still bound, per cent of control (NTRK1 (human)): 41% | kinase still bound, per cent of control (PIM1 (human)): 90% | kinase still bound, per cent of control (PIM3 (human)): 94% | kinase still bound, per cent of control (PKN1 (human)): 100% | kinase still bound, per cent of control (PLK3 (human)): 16% | kinase still bound, per cent of control (RPS6KB1 (human)): 69% | kinase still bound, per cent of control (SGK1 (human)): 88% | kinase still bound, per cent of control (STK32C (human)): 96% | kinase still bound, per cent of control (TEK (human)): 25% | kinase still bound, per cent of control [2]: 88% | kinase still bound, per cent of control (ULK2 (human)): 82%
SMILES: O=C(Nc1ccc(Oc2ncnc3[nH]ncc23)cc1)Nc1ccc(Cl)c(C(F)(F)F)c1
